Reference: patent publication US20230218563A1, “METHODS FOR TREATING OR PREVENTING CHRONIC KIDNEY DISEASE” (Arthrosi Therapeutics, Inc., priority 2020, published 2023)

Columns and labels:
serum uric acid (sUA) [1] = experiment: Phase 1 single dose study, pharmacodynamics (serum uric acid) in healthy adult males; format: in vivo, human
Protocol: The dose groups included Cohort 1 (15 mg or placebo, fasted, oral suspension), Cohort 2 (50 mg or placebo, fasted, suspension), Cohort 3 (100 mg or placebo, fasted, oral suspension), Cohort 4 (150 mg or placebo, fasted, oral suspension), Cohort 6 (50 mg or placebo, fed, oral suspension), and Cohort 7 (50 mg or placebo, fasted, oral capsule). […] An additional 8 subjects received placebo.
Decrease in sUA appeared to reach a plateau at 100 mg or lower.

serum uric acid (sUA) [2] = experiment: Phase 2a cross-over study in adults with gout, serum uric acid; format: in vivo, human
[3] = 100 mg single oral, fasted, 6 h
[4] = 100 mg single oral, fasted, 12 h
[5] = 100 mg single oral, fasted, 24 h
[6] = 100 mg single oral, fasted, 30 h
[7] = 100 mg single oral, fasted, 36 h
[8] = 100 mg single oral, fasted, 48 h
[9] = 100 mg single oral, fasted, 54 h
[10] = 100 mg single oral, fasted, 60 h
[11] = 100 mg single oral, fasted, 72 h
[12] = 100 mg single oral, fasted, 96 h
[13] = 100 mg single oral, fasted, 120 h
[14] = 150 mg single oral, fasted, 6 h
[15] = 150 mg single oral, fasted, 12 h
[16] = 150 mg single oral, fasted, 24 h
[17] = 150 mg single oral, fasted, 30 h
[18] = 150 mg single oral, fasted, 36 h
[19] = 150 mg single oral, fasted, 48 h
[20] = 150 mg single oral, fasted, 54 h
[21] = 150 mg single oral, fasted, 60 h
[22] = 150 mg single oral, fasted, 72 h
[23] = 150 mg single oral, fasted, 96 h
[24] = 150 mg single oral, fasted, 120 h
[25] = single oral dose, 50 mg or higher, fasted
[26] = gout patients (sUA>7 mg/dL), once daily, Compound 1 50 mg, febuxostat 40 mg, allopurinol 300 mg, alone or combined

[2H]c1c([2H])c([2H])c2c(C(=O)c3cc(Br)c(O)c(Br)c3)c(C(C)O)oc2c1[2H] (racemic) [Compound 1, (3,5-dibromo-4-hydroxyphenyl)(2-(1-hydroxyethyl)benzofuran-3-yl-4,5,6,7-d4)methanone]
Serum uric acid, mean (serum uric acid (sUA) [1]; 50 mg single oral, fed, 24 h): 3.8 mg/dL
Percent change in serum uric acid, mean, time-matched (Day-1) baseline (serum uric acid (sUA) [1]; 50 mg single oral, fed, 30 h): −40.1%
Serum uric acid, mean (serum uric acid (sUA) [1]; 50 mg single oral, fed, 30 h): 3.6 mg/dL
Percent change in serum uric acid, mean, time-matched (Day-1) baseline (serum uric acid (sUA) [1]; 50 mg single oral, fed, 36 h): −37.4%
Serum uric acid, mean (serum uric acid (sUA) [1]; 50 mg single oral, fed, 36 h): 3.9 mg/dL
Percent change in serum uric acid, mean, time-matched (Day-1) baseline (serum uric acid (sUA) [1]; 50 mg single oral, fed, 48 h): −32.6%
Serum uric acid, mean (serum uric acid (sUA) [1]; 50 mg single oral, fed, 48 h): 4.4 mg/dL
Percent change in serum uric acid, mean, time-matched (Day-1) baseline (serum uric acid (sUA) [1]; 50 mg single oral, fed, 54 h): −29.8%
Serum uric acid, mean (serum uric acid (sUA) [1]; 50 mg single oral, fed, 54 h): 4.2 mg/dL
Percent change in serum uric acid, mean, time-matched (Day-1) baseline (serum uric acid (sUA) [1]; 50 mg single oral, fed, 60 h): −31.3%
Serum uric acid, mean (serum uric acid (sUA) [1]; 50 mg single oral, fed, 60 h): 4.3 mg/dL
Percent change in serum uric acid, mean, time-matched (Day-1) baseline (serum uric acid (sUA) [1]; 50 mg single oral, fed, 72 h): −23.3%
Serum uric acid, mean (serum uric acid (sUA) [1]; 50 mg single oral, fed, 72 h): 5.0 mg/dL
Percent change in serum uric acid, mean, time-matched (Day-1) baseline (serum uric acid (sUA) [1]; 50 mg single oral, fed, 96 h): −10.9%
Serum uric acid, mean (serum uric acid (sUA) [1]; 50 mg single oral, fed, 96 h): 5.8 mg/dL
Percent change in serum uric acid, mean, time-matched (Day-1) baseline (serum uric acid (sUA) [1]; 50 mg single oral, fed, 120 h): −5.8%
Serum uric acid, mean (serum uric acid (sUA) [1]; 50 mg single oral, fed, 120 h): 6.1 mg/dL
sUA reduction with versus without food (serum uric acid (sUA) [1]; 50 mg single oral, throughout 120 hours post-dose): no difference observed
Percent change in serum uric acid, mean, time-matched (Day-1) baseline (serum uric acid (sUA) [1]; [3]): −31.6%
Serum uric acid, mean (serum uric acid (sUA) [1]; [3]): 3.5 mg/dL
Percent change in serum uric acid, mean, time-matched (Day-1) baseline (serum uric acid (sUA) [1]; [4]): −48.2%
Serum uric acid, mean (serum uric acid (sUA) [1]; [4]): 2.6 mg/dL
Percent change in serum uric acid, mean, time-matched (Day-1) baseline (serum uric acid (sUA) [1]; [5]): −58.8%
Serum uric acid, mean (serum uric acid (sUA) [1]; [5]): 2.3 mg/dL
Percent change in serum uric acid, mean, time-matched (Day-1) baseline (serum uric acid (sUA) [1]; [6]): −58.2%
Serum uric acid, mean (serum uric acid (sUA) [1]; [6]): 2.2 mg/dL
Percent change in serum uric acid, mean, time-matched (Day-1) baseline (serum uric acid (sUA) [1]; [7]): −52.9%
Serum uric acid, mean (serum uric acid (sUA) [1]; [7]): 2.4 mg/dL
Percent change in serum uric acid, mean, time-matched (Day-1) baseline (serum uric acid (sUA) [1]; [8]): −47.4%
Serum uric acid, mean (serum uric acid (sUA) [1]; [8]): 2.9 mg/dL
Percent change in serum uric acid, mean, time-matched (Day-1) baseline (serum uric acid (sUA) [1]; [9]): −45.7%
Serum uric acid, mean (serum uric acid (sUA) [1]; [9]): 2.8 mg/dL
Percent change in serum uric acid, mean, time-matched (Day-1) baseline (serum uric acid (sUA) [1]; [10]): −37.5%
Serum uric acid, mean (serum uric acid (sUA) [1]; [10]): 3.1 mg/dL
Percent change in serum uric acid, mean, time-matched (Day-1) baseline (serum uric acid (sUA) [1]; [11]): −38.7%
Serum uric acid, mean (serum uric acid (sUA) [1]; [11]): 3.4 mg/dL
Percent change in serum uric acid, mean, time-matched (Day-1) baseline (serum uric acid (sUA) [1]; [12]): −17.3%
Serum uric acid, mean (serum uric acid (sUA) [1]; [12]): 4.6 mg/dL
Percent change in serum uric acid, mean, time-matched (Day-1) baseline (serum uric acid (sUA) [1]; [13]): −3.8%
Serum uric acid, mean (serum uric acid (sUA) [1]; [13]): 5.4 mg/dL
Percent change in serum uric acid, mean, time-matched (Day-1) baseline (serum uric acid (sUA) [1]; [14]): −36.2%
Serum uric acid, mean (serum uric acid (sUA) [1]; [14]): 3.7 mg/dL
Percent change in serum uric acid, mean, time-matched (Day-1) baseline (serum uric acid (sUA) [1]; [15]): −50.4%
Serum uric acid, mean (serum uric acid (sUA) [1]; [15]): 2.6 mg/dL
Percent change in serum uric acid, mean, time-matched (Day-1) baseline (serum uric acid (sUA) [1]; [16]): −59.3%
Serum uric acid, mean (serum uric acid (sUA) [1]; [16]): 2.5 mg/dL
Percent change in serum uric acid, mean, time-matched (Day-1) baseline (serum uric acid (sUA) [1]; [17]): −59.1%
Serum uric acid, mean (serum uric acid (sUA) [1]; [17]): 2.3 mg/dL
Percent change in serum uric acid, mean, time-matched (Day-1) baseline (serum uric acid (sUA) [1]; [18]): −55.6%
Serum uric acid, mean (serum uric acid (sUA) [1]; [18]): 2.4 mg/dL
Percent change in serum uric acid, mean, time-matched (Day-1) baseline (serum uric acid (sUA) [1]; [19]): −53.8%
Serum uric acid, mean (serum uric acid (sUA) [1]; [19]): 2.8 mg/dL
Percent change in serum uric acid, mean, time-matched (Day-1) baseline (serum uric acid (sUA) [1]; [20]): −49.5%
Serum uric acid, mean (serum uric acid (sUA) [1]; [20]): 2.9 mg/dL
Percent change in serum uric acid, mean, time-matched (Day-1) baseline (serum uric acid (sUA) [1]; [21]): −40.8%
Serum uric acid, mean (serum uric acid (sUA) [1]; [21]): 3.1 mg/dL
Percent change in serum uric acid, mean, time-matched (Day-1) baseline (serum uric acid (sUA) [1]; [22]): −37.1%
Serum uric acid, mean (serum uric acid (sUA) [1]; [22]): 3.8 mg/dL
Percent change in serum uric acid, mean, time-matched (Day-1) baseline (serum uric acid (sUA) [1]; [23]): −25.9%
Serum uric acid, mean (serum uric acid (sUA) [1]; [23]): 4.5 mg/dL
Percent change in serum uric acid, mean, time-matched (Day-1) baseline (serum uric acid (sUA) [1]; [24]): −15.4%
Serum uric acid, mean (serum uric acid (sUA) [1]; [24]): 5.2 mg/dL
onset of sUA lowering effect (serum uric acid (sUA) [1]; [25]): 6 hours post-dose
time of sUA nadir (serum uric acid (sUA) [1]; [25]): 24-36 hours post-dose
time sUA remained lower than baseline levels (serum uric acid (sUA) [1]; [25]): up to 72 hours post-dose
dose at which decrease in sUA appeared to reach a plateau (serum uric acid (sUA) [1]; single oral dose, fasted): ≤ 100 mg
patients with sUA levels below 5 mg/dL (serum uric acid (sUA) [2]; [26]): 93%
patients with sUA levels below 6 mg/dL (serum uric acid (sUA) [2]; [26]): 96%
sUA level at 24 hr post-dose in all patients (serum uric acid (sUA) [2]; gout patients, 7 days dosing, 50 mg): below 6 mg/dL
sUA after treatment in mildly renal impaired patients (serum uric acid (sUA) [2]; gout patients, Compound 1 50 mg once daily, from 8.6±1.1 mg/dL): 4.5 ± 0.8 mg/dL
mean sUA level reached at maximum (serum uric acid (sUA) [2]; gout patients, mean baseline 8.9 mg/dL, once daily, Compound 1 50 mg, febuxostat 40 mg, allopurinol 300 mg, alone (Day 7/Day 21) or combined): 4.2 mg/dL
reduction of mean sUA from baseline (serum uric acid (sUA) [2]; gout patients, once daily, Compound 1 50 mg, febuxostat 40 mg, allopurinol 300 mg, alone (Day 7/Day 21) or combined): 53%
sUA % change from baseline (serum uric acid (sUA) [2]; one subject with albuminuria, sequential 7-day periods: Compound 1 50 mg (Day 7), Compound 1 50 mg/allopurinol 300 mg (Day 14), allopurinol 300 mg (Day 21)): −50.9%
